Values of other authors as cited in patent US9399025B2, “Modified release dosage forms of skeletal muscle relaxants” (APTALIS PHARMATECH, INC., priority 2003, dated 2016).

- Elimination half-life (after oral administration): one to three
- Absorption after oral administration (oral): well absorbed
SMILES: CN(C)CCC=C1c2ccccc2C=Cc2ccccc21 [Cyclobenzaprine]
